Values after ≈ are worked out from the molar mass of the structure shown.
What was measured:
[1] = tested on: S pastorianus; assay: MIC by standard dilution method in a liquid nutrient medium; type: cell-based, Saccharomuces pastorianus; conditions: inoculum 10^4 CFU/ml, read-out: Antimycotic Activity (MIC)
Description: (§1) For example, the new compounds were compared in vitro with the known antimycotic agents clotrimazole, miconazole and ketoconazole, in order to determine their minimum inhibitive concentrations (MICs). See, Fromtling, R. A., "Imidazoles as medically important antifungal agents: an overview," 20 Drugs of Today No. 7, 328-331 (1984); Burgess & Bodey, "Clotrimazole," 2 Antimicrobial Agents and Chemotherapy No. 6, 423-6 (1972). […] The test innoculum size was 10^6 CFU/ml for Aspergillus niger and Trichophyton mentagrophytes and 10^4 CFU/ml for Saccharomuces pastorianus and Candida albicans, where CFU is the standard abbreviation for microbial cell counts.

[2] = tested on: A niger; assay: as above; type: cell-based; conditions: Aspergillus niger, inoculum 10^6 CFU/ml, read-out: Antimycotic Activity (MIC)
Description: as §1

[3] = tested on: C albicans; assay: as above; type: cell-based; conditions: Candida albicans, inoculum 10^4 CFU/ml, read-out: Antimycotic Activity (MIC)
Description: as §1

[4] = tested on: T mentagrophytes; assay: as above; type: cell-based; conditions: Trichophyton mentagrophytes, inoculum 10^6 CFU/ml, read-out: Antimycotic Activity (MIC)
Description: as §1

[5] = tested on: clinical strain isolates of pathogenic molds (a total of 16); assay: Sensitivity of clinical mold strain isolates, dilution method on Sabouraud agar; type: cell-based; conditions: 16 clinical mold strains
Method: (§2) The sensitivity of a larger number of clinical strain isolates of pathogenic molds (a total of 16) as well as yeasts and related microorganisms (a total of 21) when exposed to the inventive compounds was determined using the dilution method on Sabouraud agar. Thus, the experimental MIC values for mold strains exposed to Compound Ia were from 0.7 to 100 mg/l.

[6] = tested on: pathogenic molds as well as yeasts and related microorganisms; assay: Effect of addition of serum or blood to the agar test plate on antimycotic effect, Sabouraud agar; type: cell-based; conditions: for effect of addition of serum or blood to the agar test plate: in comparison to the protein-free agar culture values; for potency in the presence of biological protein substances: such as blood constituents
Method: as §2

[7] = tested on: Candida albicans; assay: Vaginal candidosis induced experimentally in mice, intravaginal administration; type: in vivo, Candida albicans (in mice); conditions: for inhibition of the test culture: ten days
Method: The in vivo evaluation of antimycotic activity was performed using a model of vaginal candidosis induced experimentally in mice by Candida albicans. The test substances were administered intravaginally over a period of ten days in the form of homogenized suspensions of appropriately chosen concentrations in a 0.5% aqueous hydroxyethylcellulose solution. The results were evaluated both immediately upon administration and after one and two weeks.

[8] = tested on: about forty pathogenic yeast and mold strains; assay: MIC in dilution tests on Sabouraud agar, about forty pathogenic yeast and mold strains; type: cell-based
Method: The sensitivity of a larger number of clinical strain isolates of pathogenic molds (a total of 16) as well as yeasts and related microorganisms (a total of 21) when exposed to the inventive compounds was determined using the dilution method on Sabouraud agar.

[9] = tested on: typical inducers of dermal mycoses; assay: Antimycotic activity against typical inducers of dermal mycoses compared with clotrimazole and miconazole; type: cell-based
Method: (§3) For example, the new compounds were compared in vitro with the known antimycotic agents clotrimazole, miconazole and ketoconazole, in order to determine their minimum inhibitive concentrations (MICs). See, Fromtling, R. A., "Imidazoles as medically important antifungal agents: an overview," 20 Drugs of Today No. 7, 328-331 (1984); Burgess & Bodey, "Clotrimazole," 2 Antimicrobial Agents and Chemotherapy No. 6, 423-6 (1972). MIC values were determined by the standard dilution method in a liquid nutrient medium, primarily with the following yeast and mold species typically used in preliminary antimycotic screening: Saccharomuces pastorianus, Candida albicans, Trichophyton mentagrophytes, and Aspergillus niger. The test innoculum size was 10^6 CFU/ml for Aspergillus niger and Trichophyton mentagrophytes and 10^4 CFU/ml for Saccharomuces pastorianus and Candida albicans, where CFU is the standard abbreviation for microbial cell counts.

[10] = tested on: Aspergillus strains; assay: Antimycotic activity against Aspergillus strains compared with clotrimazole and miconazole; type: cell-based
Method: as §3

[11] = Standard test for mutagenity; conditions: standard tests
[12] = Standard test for cancerogenity; conditions: standard tests
[13] = Standard test for teratogenity; conditions: standard tests
[14] = Standard test for foetal damage; conditions: standard tests
[15] = Standard test for dermal irritation; type: in vivo; conditions: standard tests
[16] = Standard test for vaginal irritation; type: in vivo; conditions: standard tests
[17] = Chronic (one month) toxicity on intravaginal administration, rat; type: in vivo
[18] = Chronic (one month) toxicity on intravaginal administration, dog; type: in vivo
[19] = Acute toxicity LD50 in rats p.o.; conditions: for LD50: rat, in vivo, po

SMILES | MIC [1] | MIC [2] | MIC [3] | MIC [4] | MIC [5] | effect of addition of serum or blood to the agar test plate [6] | potency in the presence of biological protein substances [6] | further results
CC(=O)N1CCN(c2ccc(OCC3COC(Cn4ccnc4)(c4ccc(Cl)cc4Cl)O3)cc2)CC1 (centres unmarked) [Ketoconazole] | 50 µg/mL (≈ 94.1 µM) | 12.5 µg/mL (≈ 23.5 µM) | 0.03 µg/mL (≈ 0.0565 µM) | 0.7 µg/mL (≈ 1.32 µM) |  |  |  | 
Clc1ccccc1C(c1ccccc1)(c1ccccc1)n1ccnc1 [Clotrimazole] | 3.1 µg/mL (≈ 8.99 µM) | 3.1 µg/mL (≈ 8.99 µM) | 0.7 µg/mL (≈ 2.03 µM) | 0.03 µg/mL (≈ 0.087 µM) | 0.01 to 1.5 µg/mL (≈ 0.029 to 4.35 µM) | diminished the effect of clotrimazole about one third |  | 
Clc1ccc(COC(Cn2ccnc2)c2ccc(Cl)cc2Cl)c(Cl)c1 (centres unmarked) [Miconazole] | 6.2 µg/mL (≈ 14.9 µM) | 1.5 µg/mL (≈ 3.6 µM) | 0.7 µg/mL (≈ 1.68 µM) | 0.03 µg/mL (≈ 0.0721 µM) |  |  |  | 
Clc1ccc2c(c1)C(n1ccnc1)c1ccsc1SC2 (centres unmarked) [Compound Ib, 6-chloro-4-(1-imidazolyl)-4,9-dihydrothieno(2,3-c)-2-benzothiepin] | 12.5 µg/mL (≈ 39.2 µM) | 0.03 µg/mL (≈ 0.0941 µM) | 3.1 µg/mL (≈ 9.72 µM) | 0.03 µg/mL (≈ 0.0941 µM) | 0.01 to 1.5 µg/mL (≈ 0.0314 to 4.7 µM) | had no effect | not diminished | therapeutic effect on vaginal Candida albicans infections ([7]; topical application): beneficial therapeutic effect; Minimum MIC values [8]: 0.01 to 25 µg/mL; level of activity against typical inducers of dermal mycoses [9]: similarly potent level of activity; activity against Aspergillus strains [10]: notably increased activity; mutagenity [11]: negative; cancerogenity [12]: negative; teratogenity [13]: negative; foetal damage [14]: negative; dermal irritation [15]: negative; vaginal irritation [16]: negative; chronic (one month) toxicity [17]: negative; chronic (one month) toxicity [18]: negative; LD50 ([19]; LD50, female rats): 1120 mg/kg; LD50 ([19]; LD50, male rats): 1570 mg/kg; toxicity ([19]; rats): only slightly toxic
c1ccc2c(c1)CSc1sccc1C2n1ccnc1 (centres unmarked) [Compound Ia, 4-(1-imidazolyl)-4,9-dihydrothieno(2,3-c)-2-benzothiepin] | 25 µg/mL (≈ 87.9 µM) | 0.7 µg/mL (≈ 2.46 µM) | 25 µg/mL (≈ 87.9 µM) | 1.5 µg/mL (≈ 5.27 µM) | 0.7 to 100 µg/mL (≈ 2.46 to 352 µM) | doubled the effect | actually improved | prophylactic (preventative) effect ([7]; intravaginal, concentration of 7.5%): significant prophylactic (preventative) effect; inhibition of the test culture ([7]; intravaginal, concentration of 7.5%, therapy starting 24 hours prior to infection): complete inhibition; inhibition of the test culture ([7]; intravaginal, concentration of 7.5%, therapy starting simultaneously with infection): complete inhibition; results when therapy was delayed ([7]; intravaginal, therapy delayed until 24 hours after infection): somewhat less favorable

Source: patent US4730054A, “Imidazole thieno-benzothiepins” (SPOFA, Spojene Podinky Pro Zdravotnickou Vyrobu, priority 1985, dated 1988)
